# Measured values reported in patent US20050209157A1, “Short bioactive peptides and methods for their use” (priority 2001, published 2005).
# Where “and” joins values, the source holds several entries; their conditions need not be identical. Equal values may be shown once. Read-outs that look alike come from different tables or passages of the source. No end group written: not given here.
# What was measured:
# [1] = system: P. aeruginosa H374; format: cell-based, Pseudomonas aeruginosa; conditions: for MIC P. aeruginosa H374: in µg/mL
# [2] = system: S. epidermidis C621; format: cell-based, Staphylococcus epidermidis; conditions: for S. epidermidis C621 MIC: mean of three, 16 to 20 hours at 35° C.
# [3] = system: E. coli UB1005; format: cell-based, Escherichia coli
# [4] = system: S. aureus (MRSA); format: cell-based, Staphylococcus aureus; conditions: for S. aureus (MRSA) MIC: mean of three, 16 to 20 hours at 35° C.
# [5] = system: S. typhimurium 14028S; format: cell-based, Salmonella typhimurium
# [6] = system: Pseudomonas aeruginosa H187; format: cell-based; conditions: in µg/mL
# [7] = system: Candida albicans 105; format: cell-based; conditions: Table 13; in µg/mL
# [8] = system: Candida glabrata ATCC15126; test: Antimicrobial assays II, NCCLS broth microdilution MIC; format: cell-based; conditions: in µg/mL
# [9] = system: P. aeruginosa; format: cell-based, Pseudomonas aeruginosa; conditions: P. aeruginosa H744; MIC of nalidixic acid with peptide at ¼ MIC
# Method in brief: (§1)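 Efflux-mutant strains were tested with two-fold serial dilutions of chloramphenicol or nalidixic acid, alone and with peptide held at ¼ of its own MIC.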
# [10] = system: P. aeruginosa H774; format: cell-based, Pseudomonas aeruginosa; conditions: P. aeruginosa H744; nalidixic acid + peptide at ¼ MIC; 0.5 or less = synergy
# Method in brief: as §1
# [11] = system: P. aeruginosa H374; format: cell-based, Pseudomonas aeruginosa; conditions: for MIC Cm-comb.: MIC of chloramphenicol with peptide at ¼ MIC; for MIC Nal-comb.: MIC of nalidixic acid with peptide at ¼ MIC; for FIC Index: 0.5 or less = synergy
# Method in brief: as §1
# [12] = system: yeast (Saccharomyces cerevisiae); test: Antimicrobial assay I, yeast assay in RPMI 1640; format: cell-based; conditions: RPMI 1640 media
# [13] = system: MCF7; test: Anti-cancer assay, MTT, LD50; format: cell-based; conditions: MCF7 breast adenocarcinoma line, MTT, 24 hours with peptide
# Source text: (§2) Numbers are LD50 values (μg/mL).
# [14] = system: H1299; test: Anti-cancer assay, MTT, LD50; format: cell-based; conditions: 24 hours with peptide, lung large cell carcinoma
# Source text: as §2
# [15] = system: PC3; test: Anti-cancer assay, MTT, LD50; format: cell-based; conditions: 24 hours with peptide, prostate adenocarcinoma
# Source text: as §2
# [16] = system: BMKC; test: Anti-cancer assay, MTT, LD50; format: cell-based; conditions: BMKC cloned melanoma line, 24 hours with peptide
# Source text: as §2
# [17] = system: SW480; test: Anti-cancer assay, MTT, LD50; format: cell-based; conditions: SW480 colon adenocarcinoma line, 24 hours with peptide
# Source text: as §2
# [18] = system: WI38; conditions: MTT, 24 hours with peptide; normal fibroblast line
# [19] = system: S. pneumoniae C718; test: Antimicrobial assays II, NCCLS broth microdilution MIC; format: cell-based, Streptococcus pneumoniae; conditions: mean of three
# [20] = system: Pseudomonas aeruginosa ATCC 9027; test: Antimicrobial assay I, MIC by OD measurement; format: cell-based; conditions: 37° C. for 24 hours, absorbance 620 nm
# [21] = system: Staphylococcus aureus ATCC 6538; test: Antimicrobial assay I, MIC by OD measurement; format: cell-based; conditions: 37° C. for 24 hours, absorbance 620 nm
# [22] = system: S. pyogenes M76; test: Antimicrobial assays II, NCCLS broth microdilution MIC; format: cell-based, Streptococcus pyogenes; conditions: mean of three; 16 to 20 hours at 35° C.
# [23] = in vitro; conditions: human, WI38 normal lung fibroblast cells, LD50 WI38, WI38 normal lung fibroblast line, MTT, 24 hours with peptide
# [24] = system: S. pyogenes ATCC19615; test: Antimicrobial assays II, NCCLS broth microdilution MIC; format: cell-based, Streptococcus pyogenes; conditions: mean of three, in µg/mL
# [25] = in vitro; format: cell-based, human; conditions: human, human red blood cells, pH 7, hemolytic assay, concentration at 50% hemolysis, 1 hour at 37° C.; read-out: LD50
# [26] = system: S. pneumoniae C719; test: Antimicrobial assays II, NCCLS broth microdilution MIC; format: cell-based, Streptococcus pneumoniae; conditions: mean of three, in µg/mL
# [27] = system: HeLaS3; test: Anti-cancer assay, MTT, LD50; format: cell-based; conditions: 24 hours with peptide, cervical carcinoma
# Source text: as §2
# [28] = system: Pseudomonas aeruginosa 100609; format: cell-based; conditions: Table 9; in µg/mL
# [29] = system: Pseudomonas aeruginosa 105663; format: cell-based; conditions: Table 9; in µg/mL
# [30] = chloramphenicol + peptide at ¼ MIC
# [31] = nalidixic acid + peptide at ¼ MIC, FIC=0.25+MIC comb/MIC alone
# [32] = mean of three, 16 to 20 hours at 35° C., in µg/mL
Molecule,MIC Nal-comb. [9] [µg/mL],FIC Index [10],yeast (MIC or MFC) [12] [µg/mL],LD50 MCF7 [13] [µg/mL],H1299 LD50 [14] [µg/mL],PC3 LD50 [15] [µg/mL],LD50 BMKC [16] [µg/mL],LD50 SW480 [17] [µg/mL],S. epidermidis C621 MIC [2] [µg/mL],WI38 LD50 [18] [µg/mL],S. aureus (MRSA) MIC [4] [µg/mL],S. pneumoniae MIC [19] [µg/mL],paerug9027 (MIC) [20] [µg/mL],staph6538 (MIC) [21] [µg/mL],S. pyogenes M76 MIC [22] [µg/mL],CC50 at 24 h [23] [µg/mL],S. pyogenes MIC [24],HC50 at 1 h [25] [µg/mL],S. pneumoniae MIC [26],HeLaS3 LD50 [27] [µg/mL],further results
FAKKFAKKFKKFAKKFAKFAFAF-NH2 [P301 (147)],–,–,–,–,–,–,–,–,–,–,–,–,–,–,–,–,–,–,–,–,"MIC P. aeruginosa H374 ([1]; Table 12): 4; MIC S. epidermis C621 ([2]; Table 13, in µg/mL): 4; MIC E. coli UB1005 ([3]; Table 12): 8 µg/mL; MIC S. aureus SAP0017 ([4]; Table 13, strain SAP0017, in µg/mL): 8; MIC S. typhimurium 14028S ([5]; Table 12): 8 µg/mL; MIC P. aeruginosa H187 ([6]; Table 12): 8; MIC C. albicans 105 [7]: 32; MIC C. glabrata ATCC15126 ([8]; Table 13): 32"
FAKKLLAKALKL-NH2 [P110 (74)],–,–,–,–,–,–,–,–,–,–,–,–,–,–,–,–,–,–,–,–,MIC P. aeruginosa H187 ([6]; Table 8): 64; MIC C. glabrata ATCC15126 ([8]; Table 8): 128
FAKLLAKLAKKL-NH2 [P49],624,1.25,50,40,140,77,115,100,8,135,64,64,200,10,8,135,8,225,32,–,"MIC Cm-comb. [11]: 8 µg/mL; MIC Nal-comb. [11]: 2500 µg/mL; FIC Index [11, 30]: 0.75; FIC Index [11, 31]: 0.75"
"FAKLLAKLAKKAL-NH2 [P54, FAKLLAKLAKKAL-NH2]",624,1.25,50,60,80,90,90,–,8,97,16,64,50,5,8,97,8,250,64,190,"MIC Cm-comb. [11]: 16 µg/mL; MIC Nal-comb. [11]: 5000 µg/mL; FIC Index [11, 30]: 1.25; FIC Index [11, 31]: 1.25"
FAKKLAKKLKKLAKLALAL-OH [P29 (14)],–,–,–,–,–,–,–,–,–,–,–,–,–,–,–,–,–,–,–,–,MIC P. aeruginosa H187 ([6]; Table 8): 32; MIC C. glabrata ATCC15126 ([8]; Table 8): 128
"FALALKALKKALKKLKKALKKAL-NH2 [P2, reference compound]",–,–,25,23,140,44,128,46,8,66,32,128,100,25,4,66,8,10,32,50,–
"CC[C@H](C)[C@H](N)C(=O)N[C@@H](CC(C)C)C(=O)N1CCC[C@H]1C(=O)N[C@@H](Cc1c[nH]c2ccccc12)C(=O)N[C@@H](CCCCN)C(=O)N[C@@H](Cc1c[nH]c2ccccc12)C(=O)N1CCC[C@H]1C(=O)N[C@@H](Cc1c[nH]c2ccccc12)C(=O)N[C@@H](Cc1c[nH]c2ccccc12)C(=O)N1CCC[C@H]1C(=O)N[C@@H](Cc1c[nH]c2ccccc12)C(=O)N[C@@H](CCCNC(=N)N)C(=O)N[C@@H](CCCNC(=N)N)C(N)=O [P63, reference compound]",–,–,–,64,270,290,200,345,16,–,32,128,–,–,8,–,8,375,16,345,–
FAKKLKKLAKLAKKL-NH2 [P46],624,1.25,50,300,290,280,150,160,8,200,64,64,5,10,8,200,16,900,128,280,"P. aeruginosa H374 MIC ([1]; mean of three, 16 to 20 hours at 35° C.): 4 µg/mL; MIC Cm-comb. [11]: 8 µg/mL; MIC Nal-comb. [11]: 2500 µg/mL; FIC Index [11, 30]: 0.75; FIC Index [11, 31]: 0.75; E. coli UB1005 MIC [3, 32]: 8 and 4; S. typhimurium 14028S MIC [5, 32]: 16 and 8"
FALALKALKKALKKLKKALKKAL-NH2 [P2 (2)],–,–,–,–,–,–,–,–,–,–,–,–,–,–,–,–,–,–,–,–,MIC P. aeruginosa H374 ([1]; Table 9): 16; MIC P. aeruginosa Tb 100609 [28]: 32; MIC P. aeruginosa Tb 105663 [29]: 16; MIC P. aeruginosa H187 ([6]; Table 9): 16
